Source: US9695192B2, “Fused heterocyclic compounds as ion channel modulators” (GILEAD SCIENCES, INC., priority 2011, dated 2017)

Tests used:
Format in all cases: cell-based
[1] = target: T1, human Nav1.1 (Homo sapiens, UniProt P35498); assay: Nav1.1 use-dependent block, whole-cell voltage clamp, 10 Hz pulse train; details: Chantest conditions, read-out: NAV1.1 UDB-10 HZ % Inhibition
T1 construct: expressed in transfected cells; host or cells: HEK293, transient transfection (Qiagen Superfect), α1:β1:β2 at 10:1:1

[2] = target: wild-type human cardiac sodium channel, hNav1.5 (Homo sapiens, UniProt Q14524); assay: Late INa screening assay (QPatch whole cell patch clamp, tefluthrin-enhanced late sodium current); details: HEK293 hNav1.5, late INa activated with 10 μM Tefluthrin
Chain of wild-type human cardiac sodium channel, hNav1.5 (Q14524 whole entry): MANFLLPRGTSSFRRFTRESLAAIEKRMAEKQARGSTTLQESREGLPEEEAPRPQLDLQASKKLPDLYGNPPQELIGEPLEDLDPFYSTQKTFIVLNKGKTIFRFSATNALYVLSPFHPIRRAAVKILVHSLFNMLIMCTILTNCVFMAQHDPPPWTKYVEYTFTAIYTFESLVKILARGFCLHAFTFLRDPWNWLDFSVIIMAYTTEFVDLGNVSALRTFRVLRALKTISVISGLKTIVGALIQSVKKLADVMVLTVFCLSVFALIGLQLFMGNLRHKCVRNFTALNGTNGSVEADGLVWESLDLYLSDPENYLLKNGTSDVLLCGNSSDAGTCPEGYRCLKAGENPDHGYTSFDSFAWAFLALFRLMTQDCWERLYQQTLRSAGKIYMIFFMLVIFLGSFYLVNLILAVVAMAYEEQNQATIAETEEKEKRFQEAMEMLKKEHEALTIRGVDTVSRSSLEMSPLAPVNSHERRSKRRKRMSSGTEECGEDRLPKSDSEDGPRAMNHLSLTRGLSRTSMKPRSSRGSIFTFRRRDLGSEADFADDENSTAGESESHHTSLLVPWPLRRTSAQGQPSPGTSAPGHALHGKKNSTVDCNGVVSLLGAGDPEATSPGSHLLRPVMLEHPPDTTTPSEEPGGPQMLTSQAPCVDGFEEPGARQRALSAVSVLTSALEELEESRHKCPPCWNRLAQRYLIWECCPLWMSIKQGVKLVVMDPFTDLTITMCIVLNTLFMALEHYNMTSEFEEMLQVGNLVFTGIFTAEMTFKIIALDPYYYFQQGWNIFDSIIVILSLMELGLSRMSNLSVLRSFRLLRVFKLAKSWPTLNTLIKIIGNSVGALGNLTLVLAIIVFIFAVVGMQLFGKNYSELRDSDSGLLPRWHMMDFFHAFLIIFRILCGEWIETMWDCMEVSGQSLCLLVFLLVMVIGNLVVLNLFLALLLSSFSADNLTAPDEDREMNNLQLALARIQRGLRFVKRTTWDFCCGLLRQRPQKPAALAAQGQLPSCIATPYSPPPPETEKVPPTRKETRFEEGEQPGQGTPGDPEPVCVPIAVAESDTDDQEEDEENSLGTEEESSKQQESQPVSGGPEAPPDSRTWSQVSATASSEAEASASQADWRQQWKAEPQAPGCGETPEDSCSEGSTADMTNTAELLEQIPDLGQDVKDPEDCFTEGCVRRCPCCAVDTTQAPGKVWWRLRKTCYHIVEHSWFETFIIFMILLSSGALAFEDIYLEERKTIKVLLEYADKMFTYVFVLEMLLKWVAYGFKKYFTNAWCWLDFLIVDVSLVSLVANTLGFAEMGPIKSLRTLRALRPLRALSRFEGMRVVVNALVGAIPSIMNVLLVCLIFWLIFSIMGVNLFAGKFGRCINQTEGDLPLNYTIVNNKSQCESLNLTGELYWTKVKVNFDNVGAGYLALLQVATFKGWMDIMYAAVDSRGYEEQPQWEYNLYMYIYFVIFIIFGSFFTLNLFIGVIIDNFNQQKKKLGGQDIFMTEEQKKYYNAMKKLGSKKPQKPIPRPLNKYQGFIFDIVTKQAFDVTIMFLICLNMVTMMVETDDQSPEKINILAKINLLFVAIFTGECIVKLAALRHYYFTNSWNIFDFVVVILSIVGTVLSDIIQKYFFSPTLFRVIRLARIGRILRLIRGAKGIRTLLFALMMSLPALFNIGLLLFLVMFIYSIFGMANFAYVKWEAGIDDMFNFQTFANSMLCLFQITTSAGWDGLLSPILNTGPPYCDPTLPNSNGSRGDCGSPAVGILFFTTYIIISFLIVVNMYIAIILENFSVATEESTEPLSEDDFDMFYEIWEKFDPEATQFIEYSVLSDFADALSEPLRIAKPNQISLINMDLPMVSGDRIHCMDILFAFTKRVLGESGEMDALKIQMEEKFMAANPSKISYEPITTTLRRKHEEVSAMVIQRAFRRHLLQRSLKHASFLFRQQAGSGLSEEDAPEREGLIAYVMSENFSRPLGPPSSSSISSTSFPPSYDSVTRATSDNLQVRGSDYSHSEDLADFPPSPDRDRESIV
How it was run: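 Automated whole-cell patch clamp of HEK293 cells stably expressing hNav1.5 (no β subunits), 23-25 °C. Late current enhanced by 10 μM tefluthrin, 250 ms steps to −20 mV from −120 mV at 0.1 Hz, measured 225-250 ms. Compounds typically 1 μM, three additions over 7-8 min; % block normalised to 0 Na baseline.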

[3] = target: T2, hNav1.2 sodium channel (Homo sapiens, UniProt Q99250); assay: Nav1.2 use-dependent block, whole-cell voltage clamp, 10 Hz pulse train; details: Chantest conditions, read-out: NAV1.2 UDB-10 HZ % Inhibition
T2 construct: expressed in transfected cells
T2 sequence (Q99250 whole entry): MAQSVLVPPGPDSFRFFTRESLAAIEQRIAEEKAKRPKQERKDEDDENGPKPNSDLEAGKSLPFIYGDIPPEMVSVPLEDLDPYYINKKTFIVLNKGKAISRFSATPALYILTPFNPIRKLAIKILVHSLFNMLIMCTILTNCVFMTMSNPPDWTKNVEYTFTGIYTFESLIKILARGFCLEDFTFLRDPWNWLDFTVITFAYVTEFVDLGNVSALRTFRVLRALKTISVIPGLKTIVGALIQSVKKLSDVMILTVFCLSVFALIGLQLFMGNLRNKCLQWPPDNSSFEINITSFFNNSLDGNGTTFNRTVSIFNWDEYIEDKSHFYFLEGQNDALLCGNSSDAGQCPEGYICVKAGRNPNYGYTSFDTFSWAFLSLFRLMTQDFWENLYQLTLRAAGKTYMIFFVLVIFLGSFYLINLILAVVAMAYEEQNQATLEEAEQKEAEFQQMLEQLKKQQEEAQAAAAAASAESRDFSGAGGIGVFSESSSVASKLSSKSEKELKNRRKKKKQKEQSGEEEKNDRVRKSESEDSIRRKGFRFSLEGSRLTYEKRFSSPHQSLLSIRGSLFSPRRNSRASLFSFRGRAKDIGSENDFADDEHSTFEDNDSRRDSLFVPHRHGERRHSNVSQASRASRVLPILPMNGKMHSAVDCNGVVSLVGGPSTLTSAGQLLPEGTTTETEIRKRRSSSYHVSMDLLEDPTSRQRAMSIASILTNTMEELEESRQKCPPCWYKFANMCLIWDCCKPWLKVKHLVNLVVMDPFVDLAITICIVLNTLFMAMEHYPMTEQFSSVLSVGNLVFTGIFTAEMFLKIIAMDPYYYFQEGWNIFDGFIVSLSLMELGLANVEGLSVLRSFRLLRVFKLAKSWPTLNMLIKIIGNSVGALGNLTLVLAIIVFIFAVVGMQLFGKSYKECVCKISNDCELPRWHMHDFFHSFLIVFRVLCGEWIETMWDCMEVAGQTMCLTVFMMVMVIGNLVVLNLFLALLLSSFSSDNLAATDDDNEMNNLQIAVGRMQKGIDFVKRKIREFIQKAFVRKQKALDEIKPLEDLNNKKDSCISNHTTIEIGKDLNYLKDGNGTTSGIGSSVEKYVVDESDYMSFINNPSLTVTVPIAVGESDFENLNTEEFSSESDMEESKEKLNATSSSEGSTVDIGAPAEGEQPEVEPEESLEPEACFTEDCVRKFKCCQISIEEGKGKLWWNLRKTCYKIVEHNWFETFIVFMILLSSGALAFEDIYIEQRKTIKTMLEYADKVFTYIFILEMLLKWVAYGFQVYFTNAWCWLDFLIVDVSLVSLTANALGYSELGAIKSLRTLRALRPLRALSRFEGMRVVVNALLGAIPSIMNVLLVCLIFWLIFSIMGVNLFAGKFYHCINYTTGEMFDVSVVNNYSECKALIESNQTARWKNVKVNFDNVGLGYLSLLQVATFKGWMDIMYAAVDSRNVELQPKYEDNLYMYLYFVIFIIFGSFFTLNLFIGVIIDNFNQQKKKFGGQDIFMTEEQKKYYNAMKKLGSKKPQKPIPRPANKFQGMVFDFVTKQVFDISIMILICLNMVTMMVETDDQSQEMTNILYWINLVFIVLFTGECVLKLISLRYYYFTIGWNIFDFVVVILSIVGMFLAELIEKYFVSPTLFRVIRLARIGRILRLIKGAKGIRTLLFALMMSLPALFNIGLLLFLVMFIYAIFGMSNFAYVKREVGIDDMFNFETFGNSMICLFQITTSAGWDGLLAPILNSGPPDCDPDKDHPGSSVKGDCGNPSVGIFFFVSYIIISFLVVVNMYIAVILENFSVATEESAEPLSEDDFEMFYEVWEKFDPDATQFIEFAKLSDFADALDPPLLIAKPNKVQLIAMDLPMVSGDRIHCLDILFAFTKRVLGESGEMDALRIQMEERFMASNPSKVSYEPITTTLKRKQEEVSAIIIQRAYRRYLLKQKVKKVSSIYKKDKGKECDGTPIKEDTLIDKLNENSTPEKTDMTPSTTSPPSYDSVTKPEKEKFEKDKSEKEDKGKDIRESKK
Source text: Wild-type (WT) cDNA stably transfected in Chinese hamster ovary (CHO) cells is used to record INa. Unless otherwise noted, all reagents are purchased from Sigma-Aldrich (St Louis, Mo., U.S.A.).
Whole-cell voltage-clamp recordings are used to measure the biophysical properties of WT. Briefly, the pipette solution consists of (in mM) 110 CsF, 10 NaF, 20 CsCl, 2 EGTA, 10 HEPES, with a pH of 7.35 and osmolarity of 300 mOsmol/kg. The bath (control) solution contains in (mM): 145 NaCl, 4 KCl, 1.8 CaCl2, 1 MgCl2, 10 dextrose, 10 HEPES, with a pH of 7.35 and osmolarity of 310 mOsmol/kg. Cells are allowed to stabilize for 10 min after establishment of the whole-cell configuration before current is measured. Series resistance is compensated 90% to assure that the command potential is reached within microseconds with a voltage error<2 mV. Leak currents are subtracted by using an online P/4 procedure and all currents are low-pass Bessel filtered at 5 kHz and digitized at 50 kHz.
Tonic block of peak current is measured using a step to −10 mV (20 ms) from a holding potential of −120 mV (0.2 Hz). Use-dependent block of peak current is measured during pulse number 300 of a pulse train (−10 mV, 5 ms, 300 pulses, 10 Hz or 25 Hz) from a holding potential of −120 mV. Currents are then normalized to the peak current recorded in response to the first pulse in each frequency train. For tonic block studies, peak current is evaluated in response to a 20 ms depolarization to −10 mV (0.2 Hz). Two sequential pulse train stimulations are averaged to obtain mean current traces for each recording condition, which are then used for offline subtraction and analysis.
A stock solution of 10 mM compound of Formula I is prepared in 0.1 M HCl or DMSO. A fresh dilution of the compound of Formula I in the bath solution is prepared every experimental day and the pH is readjusted to 7.35 as necessary. The final DMSO concentration was kept at 0.1% in all solutions. Direct application of the perfusion solution to the clamped cell is achieved using the Perfusion Pencil system (Automate, Berkeley, Calif.). Direct cell perfusion is driven by gravity at a flow rate of 350 μL/min using a 250 micron tip. This system sequesters the clamped cell within a perfusion stream and enables complete solution exchange within 1 second. The clamped cell is perfused continuously starting immediately after establishing the whole-cell configuration. Control currents are measured during control solution perfusion.
Solutions are perfused for three minutes prior to current recordings to allow equilibrium (tonic) drug block. Tonic block of peak currents is measured from this steady-state condition. Three sequential current traces are averaged to obtain a mean current for each recording. The mean current traces are utilized for offline analysis.

inhibition at 1 µM [1] [%]	inhibition at 1 µM [3] [%]	Compound	inhibition at 1 µM [2] [%]
-12	2	FC(F)(F)c1ccc(-c2ccc3c(c2)-c2nccn2CCO3)cc1 [Compound I-1, 10-(4-(trifluoromethyl)phenyl)-5,6-dihydrobenzo[f]imidazo[1,2-d][1,4]oxazepine]	32
1	18	FC(F)(F)Oc1ccc(-c2ccc3c(c2)-c2nccn2CCO3)cc1 [Compound I-2, 10-(4-(trifluoromethoxy)phenyl)-5,6-dihydrobenzo[f]imidazo[1,2-d][1,4]oxazepine]	31
-10	-3	Cc1cnc2n1CCOc1ccc(-c3ccc(C(F)(F)F)cc3)cc1-2 [Compound I-6, 3-methyl-10-(4-(trifluoromethyl)phenyl)-5,6-dihydrobenzo[f]imidazo[1,2-d][1,4]oxazepine]	28
4	0	FC(F)(F)c1ccc(-c2ccc3c(c2)-c2ncc(C4CC4)n2CCO3)cc1 [Compound I-9, 3-cyclopropyl-10-(4-(trifluoromethyl)phenyl)-5,6-dihydrobenzo[f]imidazo[1,2-d][1,4]oxazepine]	4
-5	0	CC(C)(O)c1cnc2n1CCOc1ccc(-c3ccc(C(F)(F)F)cc3)cc1-2 [Compound I-10, 2-(10-(4-(trifluoromethyl)phenyl)-5,6-dihydrobenzo[f]imidazo[1,2-d][1,4]oxazepin-3-yl)propan-2-ol]	10
-5	-5	FC(F)(F)c1ccc(-c2ccc3c(c2)-c2ncc(Cc4ccccc4)n2CCO3)cc1 [Compound I-11, 3-benzyl-10-(4-(trifluoromethyl)phenyl)-5,6-dihydrobenzo[f]imidazo[1,2-d][1,4]oxazepine]	13
-7	6	FC(F)(F)c1ccc(-c2ccc3c(c2)-c2ncc(Br)n2CCO3)cc1 [Compound I-12, 3-bromo-10-(4-(trifluoromethyl)phenyl)-5,6-dihydrobenzo[f]imidazo[1,2-d][1,4]oxazepine]	4
-3	8	FC(F)(F)c1ccc(-c2ccc3c(c2)-c2ncc(Cl)n2CCO3)cc1 [Compound I-13, 3-chloro-10-(4-(trifluoromethyl)phenyl)-5,6-dihydrobenzo[f]imidazo[1,2-d][1,4]oxazepine]	6
0	4	Cc1c(Cl)nc2n1CCOc1ccc(-c3ccc(C(F)(F)F)cc3)cc1-2 [Compound I-14, 2-chloro-3-methyl-10-(4-(trifluoromethyl)phenyl)-5,6-dihydrobenzo[f]imidazo[1,2-d][1,4]oxazepine]	11
